Source: PubChem BioAssay (NCI)
Several values for one entry are separate records, joined by “and”; a condition that tells them apart may be missing. Identical values can stand only once.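 Test compounds were applied to cells in 96-well plates for 48 hours at 5 doses. GI50: concentration for 50% inhibition of growth. Definition used: TGI = concentration required for complete inhibition of growth.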

How the values were obtained:
Experiment in all cases: NCI-60 cell line screen, 48 h
NCI-H226 lung = test system: NCI-H226 lung
NCI-H522 lung = test system: NCI-H522 lung
SK-MEL-2 melanoma = test system: SK-MEL-2 melanoma
NCI-H23 lung = test system: NCI-H23 lung
U251 CNS = test system: U251 CNS
LOX IMVI melanoma = test system: LOX IMVI melanoma
A498 renal = test system: A498 renal
A549 NSCLC = test system: A549 NSCLC
HL-60(TB) leukemia = test system: HL-60(TB) leukemia
MOLT-4 leukemia = test system: MOLT-4 leukemia

| SMILES | GI50 (NCI-H226 lung) | TGI (NCI-H226 lung) | GI50 (NCI-H522 lung) | TGI (NCI-H522 lung) | GI50 (SK-MEL-2 melanoma) | TGI (SK-MEL-2 melanoma) | GI50 (NCI-H23 lung) | TGI (NCI-H23 lung) | GI50 (U251 CNS) | TGI (U251 CNS) | GI50 (LOX IMVI melanoma) | TGI (LOX IMVI melanoma) | GI50 (A498 renal) | TGI (A498 renal) | GI50 (A549 NSCLC) | TGI (A549 NSCLC) | GI50 (HL-60(TB) leukemia) | TGI (HL-60(TB) leukemia) | GI50 (MOLT-4 leukemia) | TGI (MOLT-4 leukemia) |
| --- | --- | --- | --- | --- | --- | --- | --- | --- | --- | --- | --- | --- | --- | --- | --- | --- | --- | --- | --- | --- |
| COc1ccc(N2Cc3cnc(Nc4ccccc4)nc3N([C@@H]3CC[C@@H](O)C3)C2=O)cc1 | 0.523 µM | > 25 µM | 2.93 µM | > 18.8 µM | 5.21 µM | 17.5 µM | 8.17 µM | > 25 µM | 1.01 µM | > 25 µM | 1.14 µM | 5.17 µM | 0.128 µM | 1.2 µM | 5.16 µM | > 25 µM | 4.45 µM | > 20.7 µM | 2.61 µM | > 17.8 µM |
| CCCC(=O)Nc1cc(C(=O)N2C[C@@H]3C[C@]34C2=CC(=O)c2[nH]cc(C)c24)n(COC)c1 |  | 42.1 µM |  | 3.57 µM and 2.43 µM | 1.98 µM | 12.2 µM and 3.46 µM | 1.38 µM | 9.19 µM and 3.6 µM | 2.39 µM | 20.6 µM and 6.21 µM | 2.06 µM | 30 µM and 7.17 µM |  | 19.2 µM and 25.1 µM | 16.6 µM | 40.7 µM and 47.9 µM |  | 7.8 µM | 0.523 µM | 3.3 µM and 23.2 µM |
| O=C(c1ccc(Cl)cc1)c1ccc(OCCCCCCCCCCOc2ccc(C(=O)c3ccc(Cl)cc3)cc2)cc1 |  | > 100 µM |  | > 100 µM |  | > 100 µM |  | > 100 µM |  | > 100 µM |  | > 100 µM |  | > 100 µM |  | > 100 µM |  | > 100 µM |  | > 100 µM |
| CSC(CC(=O)O)C(=O)O (stereo not drawn) |  | > 100 µM |  | > 100 µM |  | > 100 µM |  | > 100 µM |  | > 100 µM |  | > 100 µM |  | > 100 µM |  | > 100 µM |  | > 100 µM |  | > 100 µM |
| COc1ccc2c(c1)C(=O)c1c-2n(CCCN=[N+]=[N-])c(=O)c2cc(N(C)C)ccc12 | > 100 µM | > 100 µM | 11.2 µM | 92.4 µM | > 100 µM | > 100 µM | > 100 µM | > 100 µM | 19.5 µM | > 100 µM | > 100 µM | > 100 µM | > 100 µM | > 100 µM | > 100 µM | > 100 µM | > 100 µM | > 100 µM | > 100 µM | > 100 µM |
| CCc1cccc(C(C)C)c1NC(=O)C(=O)CC(=O)c1c(C)n([O-])c2ccccc2[n+]1=O |  | > 100 µM |  | > 100 µM |  | > 100 µM |  | > 100 µM |  | > 100 µM |  | > 100 µM |  | > 100 µM |  | > 100 µM |  | > 100 µM |  | > 100 µM |
| CCO/C=C/C(C)C1(C(=O)OCC)CCCCC1=O (stereo not drawn) |  | > 100 µM |  | > 100 µM |  | > 100 µM |  | > 100 µM |  | > 100 µM |  | > 100 µM |  | > 100 µM |  | > 100 µM |  | > 100 µM |  | > 100 µM |
| COc1ccc(-c2cc(=O)c3c(C)cc(C)nc3[nH]2)cc1 |  | > 100 µM |  | > 100 µM |  | > 100 µM |  | > 100 µM | 90.7 µM | > 100 µM |  | > 100 µM |  | > 100 µM |  | > 100 µM |  | 35.4 µM |  | 42.9 µM |
| COc1cc2c(c(OC)c1OC)-c1ccc(N)c(=O)cc1[C@@H](NC(C)=O)CC2 | 0.0852 µM |  | < 0.0114 µM | < 0.021 µM | < 0.01 µM | 0.0353 µM | 0.0316 µM | > 100 µM | 0.0302 µM | > 100 µM | 0.0256 µM | > 100 µM | 0.0297 µM |  | 0.0563 µM | > 100 µM | 0.0171 µM |  | 0.0395 µM | > 100 µM |
| CCn1c(C(=O)N(C2CC2)C2CC2)cc2c3c(ncn3C)c(Nc3cc(C)n(C)n3)nc21 | > 100 µM | > 100 µM | > 100 µM | > 100 µM | > 100 µM | > 100 µM | > 100 µM | > 100 µM | > 100 µM | > 100 µM | 59.2 µM | > 100 µM |  | > 100 µM | > 100 µM | > 100 µM | > 100 µM | > 100 µM | > 100 µM | > 100 µM |
| COc1cc(/C=C\c2ccccc2)cc(OC)c1OC |  | 24.1 µM |  | 7.26 µM |  | 26.2 µM |  | 19.5 µM |  | 29.4 µM |  | > 100 µM |  | > 41.1 µM |  | > 80.3 µM |  | 6.34 µM |  | 17.2 µM |
| O=C(Nc1ccc(F)cc1)c1ccc(NC2=C(Cl)C(=O)N(Cc3ccccc3)C2=O)cc1 | 13.5 µM | 33.3 µM | 7.27 µM | 28.8 µM | 5.34 µM | 19.3 µM | 31.5 µM | 84.4 µM | 11 µM | 24.1 µM | 11.3 µM | 25.2 µM | 13.6 µM | 31.9 µM | 8.68 µM | 39 µM | 2.31 µM | 7.35 µM | 3.79 µM | 21 µM |
| COc1ccc2c(c1)/C(=C\c1cccnc1)C(=O)N2 | 7.38 µM | 23.6 µM | 17.8 µM | 64 µM | 42.3 µM | > 100 µM | 16.6 µM | 35 µM | 7.84 µM | 47.7 µM | 8.83 µM | 25.3 µM | 23.4 µM | 49.8 µM | 18.2 µM | 56.7 µM | 24.7 µM | > 100 µM | 23 µM | > 100 µM |
| COc1ccccc1/C=C/[N+](=O)[O-] | 3.41 µM | 11.7 µM | 1.08 µM | 2.47 µM | 5.4 µM | 17.2 µM | 1.96 µM | 4.6 µM | 2.07 µM | 5.72 µM | 1.4 µM | 2.86 µM | 1.93 µM | 5.03 µM | 3 µM | 10.4 µM | 1.92 µM | 4.49 µM | 2.54 µM | 6.45 µM |
| CCc1n(Cc2ccc3ccccc3n2)cc[n+]1Cc1ccc2ccccc2n1 | 2.56 µM | 30.8 µM | 0.0837 µM | 1.49 µM | 0.217 µM | 2.11 µM | 0.257 µM | 8.66 µM | 0.186 µM | 13.5 µM | 0.596 µM | 13.2 µM | 0.303 µM | 9.38 µM | 5.27 µM | > 100 µM | 0.0329 µM | 0.262 µM | 0.437 µM | 10.1 µM |
